How the values were obtained:
[1] = tested on: SSPN-HiBiT protein (sarcospan); assay: C2C12 SSPN-HiBiT protein reporter assay (12-well and 384-well format); assay type: cell-based, murine
Method: C2C12 SSPN-HiBiT myoblasts were seeded at 25,000 cells per well in 2 ml of growth media in 12 well-plates and incubated for 3 days. Upon reaching confluency, the growth media was replaced with 2 ml of differentiation media. At day 2 of differentiation, the media on the cells was replaced with 2 ml of differentiation media containing compounds at a final concentration of 5.5 μM in 0.06% DMSO. For vehicle control-treated cells, 0.06% DMSO was added to the cells. After 48 hrs the cells were washed with PBS and frozen for 2-24 hrs. The plates containing cells were thawed on ice and 100 μl of ice-cold modified RIPA buffer containing 1% Triton X-100, 0.05% DOC, 0.05% SDS, and Halt Protease Inhibitor was added to each well. Cells were scratched, transferred into 1.5 ml tubes, and centrifuged for 20 min at 16,000×g at 4° C. The cell lysates were transferred into new tubes. DC assay was performed on cell lysates to determine protein concentration. White walled, white bottom 384-well microplates (Greiner) were prefilled with 15 μl of PBS and 15 μl of cell lysates were added to each well in triplicate. Then 30 μl Nano-Glo HiBiT Lytic Detection working solution was added to each well and incubated for 30 min at RT with shaking. The luminescence was measured on the EnVision plate reader and the signal was normalized to protein concentration and signal from vehicle-treated controls.
C2C12 SSPN-HiBiT myoblasts were seeded at 500 cells per well in 50 μl of growth media in 384-well white, clear bottom microplates (Greiner) and incubated for 3 days. Upon reaching confluency, the growth media was replaced with 50 μl of differentiation media consisting of phenol-red free DMEM with 2% horse serum (Sigma-Aldrich) using an EL406 combination washer dispenser (Biotek). At day 2 of differentiation, the media on the cells was aspirated, left with a residual volume of 10 μl, and replaced with 30 μl of fresh differentiation media. 0.5 μl of small molecule in DMSO or DMSO alone (for vehicle and positive control wells) were added to each well using a Biomek Fx (Beckman). To ensure proper mixing of the DMSO, 50 μl of additional differentiation media was added to all wells except the positive control treated wells. The final concentration of compound in each treated well was 0.5-10 μM in 0.55% DMSO and 0.55% DMSO only for vehicle. After 48 hrs of incubation, the plate was washed with phenol red-free DMEM, aspirated, and left with a residual volume of 5 μl using EL406 combination washer dispenser. After the wash, 25 μl of differentiation media containing 12 μM DRAQ5 nuclear stain was added to reach a final concentration 10 μM in each well and incubated for 15 min at 37° C. with 5% CO2. The cells were imaged using ImageXpress Micro Confocal High Content Imaging System (Molecular Devices). The nuclei count of imaged cells were determined using a custom module analysis in MetaXpress Analysis software (Molecular Devices). After imaging and analysis, the plate was aspirated, left with a residual volume of 5 μl and placed at −80° C. for 2-24 hrs. The plate was thawed at RT and 25 μl of PBS was added, followed by 30 μl of Nano-Glo HiBiT Lytic Detection working solution prepared according manufacturer recommendations. Luminescence was measured using the EnVision plate reader and the signal of each well was normalized to nuclei count and signal from vehicle-treated controls.
In order to effectively test new analogues, we created method for detecting SSPN protein in cells, e.g., SSPN-HiBiT. SSPN-HiBiT based on a murine C2C12 cell line expressing endogenous SSPN protein with an N-term fusion protein called the HiBiT, an 11 amino acid subunit of a luciferase enzyme (FIG. 10a). The SSPN-HiBiT protein is quantified through addition of substrate and a larger subunit of the luciferase enzyme to catalyze the formation of luminescent signal. […]

[2] = tested on: SSPN mRNA; assay: siRNA-mediated knockdown of SSPN in mdx myotubes, SSPN mRNA; assay type: cell-based, murine
Method: RNA from myotubes treated for 48 hrs was extracted from cells using Trizol-based (Thermo Fisher Scientific) phase separation, Chomczynski et al., Biotechniques. 1993; 15(3):532-4, 6-7. RNA concentrations were determined using a NanoDrop 1000 (Thermo Fisher Scientific) and 750 ng of RNA in a 20 Id reaction was reverse transcribed using iScript cDNA synthesis (Bio-Rad) with the following cycling conditions: 25° C. for 5 mins, 42° C. for 30 mins, 85° C. for 5 mins. For mouse qPCR, SsoFast EvaGreen Supermix (Bio-Rad), 400 nM of each optimized forward and reverse primer (SSPN F: 5′ […] 3′, SSPN R: 5′ […] 3′, BACT F: 5′ […] 3′, BACT R: 5′ […] 3′), and cDNA corresponding to 37.5 ng RNA were used to amplify cDNA measured by QuantStudio 5 Real-Time PCR System (Thermo Fisher Scientific) with the following reaction conditions: 55° C. for 2 mins, 95° C. for 2 mins, 40 cycles of 95° C. for 10 seconds and 62° C. for 30 seconds, and dissociation stage. For qPCR of human samples, TaqMan assays were used to quantify SSPN (assay ID Hs01025520m 1) and ACTB (assay ID Hs01060665_g1) with the following reaction conditions: 50° C. for 2 mins, 95° C. for 10 mins, 40 cycles of 95° C. for 15 seconds and 62° C. for 1 minute. […] Data was analyzed using the ddCT method and normalized to reference gene ACTB with vehicle-treated samples serving as the calibrator (relative expression of vehicle control=1). […]

`CCN(CC)c1ccc2cc(C(=O)Nc3ccc(C(=O)N4CCCCCC4)cc3)c(=O)oc2c1` [OT-9] was tested, and the SSPN-HiBiT reporter response ([1]; 0.5-10 μM, 12-well and 384-well plate formats) was “dose-sensitive increases in SSPN”, the “SSPN-HiBiT, fold change over vehicle” value ([1]; Table 1, *p<0.05) was 2.29* fold change over vehicle and the “SSPN mRNA levels under SSPN knockdown” value ([2]; 24 nM SSPN siRNA plus OT-9) was “increased SSPN mRNA levels”. The “increase of SSPN mRNA relative to the vehicle control” value ([2]; 24 nM scramble siRNA plus 1, 5 or 10 μM OT-9) was “up to 1.4 fold”.

Source: patent US20230348394A1, “COMPOSITIONS AND METHODS FOR TREATING MUSCULAR DYSTROPHIES” (The Regents of the University of California, priority 2020, published 2023)
